Legend:
CT26 tumors = experiment: Subcutaneous CT26 murine colon cancer model, tumor volume; format: in vivo, Balb/c mice; settings: doxorubicin alone, 10 mg/kg
Text: (§1) FIG. 6A-D. The combined effects of SipA-AuNPs and exogenous doxorubicin prevent tumor growth. (FIG. 6A) Balb/c mice bearing subcutaneous CT26 tumors (mean tumor volumes of approximately 0.5 mm^3) received IP treatments for 15 days as described in the Materials and Methods section, (▪) Untreated, (●) AuNP alone, (▴A) SipA-AuNPs, (♦) Doxorubicin or (□) SipA-AuNP plus Doxorubicin (DOX). SipA-AuNPs conjugates improve the efficacy of doxorubicin. (*P<0.0001). (FIG. 6B) Accumulation of gold nanoparticles in the tumors shown in (FIG. 6A) was evaluated by SEM and X-ray microanalysis. Color intensity represents tumor penetration. The sections of tumor were imaged for X-ray analysis and X-ray mapping as described in the Materials and Methods section. (FIG. 6C) P-gp expression in the tumors shown in (FIG. 6A) was evaluated by western blot. Tumors were homogenized and lysed. Whole cell lysates were normalized for protein levels and probed for P-gp. Levels of P-gp were quantified by densitometry and presented on the bar cart. Densitometry was performed using ImageJ and results are presented as relative to the untreated cells. […] Levels of P-gp were quantified by densitometry and presented on the bar graph. […]
The subcutaneous tumor model. […] Tumor size was measured using calipers and volumes were estimated using the formula 0.5×length×(width)^2. […]

P-gp [1] = experiment: Colonic P-gp expression in mice colonized with S. Typhimurium strains; format: in vivo, Balb/c mice; settings: SipA over-expressing strain (AJK63) vs isogenic SipA mutant strain (EE633), proximal colon, 48 hours
Text: as §1, with “Whole cell lysates were normalized for protein levels and probed for P-gp.” left out, “cart.” for “cart. Densitometry was performed using ImageJ and results are presented as relative to the untreated cells.”
Since normal healthy intestinal epithelium display baseline expression of P-gp, the inventors evaluated the colonic expression of P-gp in mice colonized with a S. Typhimurium strain that over-expresses SipA (AJK63) compared to mice colonized with an equivalent amount of an isogenic SipA mutant strain (EE633). […]

P-gp [2] = experiment: P-gp expression in UM-UC-3 bladder carcinoma cells, Western blot; format: cell-based, human; settings: UM-UC-3 cells, 80 or 160 μg/ml purified SipA, 3 h
Procedure: (§2) FIG. 3A-B. SipA-induced, dose-dependent P-gp down-regulation is conserved in other cancer cell types. (FIG. 3A) MCF-7 breast adenocarcinoma cells were left untreated (−) or exposed to 80 μg/ml or 160 μg/ml of purified SipA for 3 h. Normalized whole cell lysates were then probed for P-gp and GAPDH. Densitometry was analyzed by ImageJ and presented as relative to the untreated cells. (FIG. 3B) UM-UC-3 human bladder carcinoma cells were left untreated or exposed to 80 μg/ml or 160 μg/ml of purified SipA for 3 h, and then probed and analyzed as in (FIG. 3A).
(§3) Cell culture. The human intestinal adenocarcinoma cell line HCT8 were maintained in accordance with (8). The human breast adenocarcinoma cell line MCF-7, the human bladder transitional cell carcinoma cell line UM-UC-3, and the CT26 murine colon carcinoma cell line, were purchased from ATCC and were all maintained in DMEM F-12 containing a 10% fetal bovine serum, 100 U/ml penicillin, and 10 μg/ml streptomycin at 37° C. in 90% relative humidity and 5% CO2.
(§4) Cell lysates and Western Blot analysis. Cell lysates were harvested from S. Typhimurium-infected HCT8 cells, as previously described (8). Proteins were normalized to 30 μg, separated by SDS/PAGE (4-12% gradient; Biorad, Hercules, Calif.), and transferred to nitrocellulose (Bio-Rad; 0.45μ membrane). […]

P-gp [3] = experiment: P-gp expression in MCF-7 breast adenocarcinoma cells, Western blot; format: cell-based, human; settings: MCF-7 cells, 80 or 160 μg/ml purified SipA, 3 h, compared to buffer control
Procedure: as §2, §3, §4

PERP [4] = experiment: PERP protein expression in human colonic cancers in vitro; format: cell-based
Text: (§5) In a further embodiment, SipA increases the level of expression of PERP in cells, PERP is a tetraspan membrane protein originally identified as a transcriptional target of the p53 tumor suppressor (10). P53 regulates the cell cycle and, thus, functions as a tumor suppressor that is involved in preventing cancer. As such, p53 has been described as “the guardian of the genome”, referring to its role in conserving stability by preventing genome mutation. Fundamental to the tumor-suppressor role of p53 is the ability to engage in apoptosis. […] Studies investigating the interaction of SipA with the surface epithelial cells have been carried out (13, 14). The inventors used a split-ubiquitin based yeast-two hybrid analysis system (Dualsystems Biotech) with full length SipA as bait and a human cancer colon mRNA-based library as prey, to identify PERP, a p53 induced apoptotic effector, as a SipA interacting partner. […] While an understanding of the mechanism is not necessary, and without limiting the invention to any particular mechanism, and although the precise function of PERP in eliciting an apoptotic response remains unknown, initial reports indicate that PERP expression causes nuclear localization of p53 and increases the level of transcriptionally active p53 protein. […] Including increased protein stability, postranslational modifications, and enhanced nuclear accumulation. […]

P-gp [5] = experiment: P-gp expression in HCT8 cell monolayers, Western blot; format: cell-based, human
Procedure: FIG. 5A-B. SipA-AuNPs decrease the expression of P-gp at a SipA dose nearly 500 times lower than free SipA. (FIG. 5A) Schematic presentation of P-gp knockdown mechanism via SipA-AuNP. (FIG. 5B) HCT8 cell monolayers were left untreated (−), exposed to […] 160 μg/ml of purified SipA, AuNP alone or AuNP-SipA (0.72 μg/ml of SipA).
as §3
as §4, with “membrane). Immuno-blots were performed using the murine monoclonal P-gp C219 antibody (calbiochem) diluted at 1:100.” for “membrane).”

PERP [6] = molecular target: T1, PERP (Homo sapiens, UniProt Q96FX8); experiment: Split-ubiquitin yeast-two hybrid analysis with full length SipA as bait; format: binding; settings: human cancer colon mRNA-based library as prey; epithelial surfaces
T1 construct: host or cells: yeast (split-ubiquitin two-hybrid system)
Text: as §5

Sequence of P-gp (P08183 whole entry): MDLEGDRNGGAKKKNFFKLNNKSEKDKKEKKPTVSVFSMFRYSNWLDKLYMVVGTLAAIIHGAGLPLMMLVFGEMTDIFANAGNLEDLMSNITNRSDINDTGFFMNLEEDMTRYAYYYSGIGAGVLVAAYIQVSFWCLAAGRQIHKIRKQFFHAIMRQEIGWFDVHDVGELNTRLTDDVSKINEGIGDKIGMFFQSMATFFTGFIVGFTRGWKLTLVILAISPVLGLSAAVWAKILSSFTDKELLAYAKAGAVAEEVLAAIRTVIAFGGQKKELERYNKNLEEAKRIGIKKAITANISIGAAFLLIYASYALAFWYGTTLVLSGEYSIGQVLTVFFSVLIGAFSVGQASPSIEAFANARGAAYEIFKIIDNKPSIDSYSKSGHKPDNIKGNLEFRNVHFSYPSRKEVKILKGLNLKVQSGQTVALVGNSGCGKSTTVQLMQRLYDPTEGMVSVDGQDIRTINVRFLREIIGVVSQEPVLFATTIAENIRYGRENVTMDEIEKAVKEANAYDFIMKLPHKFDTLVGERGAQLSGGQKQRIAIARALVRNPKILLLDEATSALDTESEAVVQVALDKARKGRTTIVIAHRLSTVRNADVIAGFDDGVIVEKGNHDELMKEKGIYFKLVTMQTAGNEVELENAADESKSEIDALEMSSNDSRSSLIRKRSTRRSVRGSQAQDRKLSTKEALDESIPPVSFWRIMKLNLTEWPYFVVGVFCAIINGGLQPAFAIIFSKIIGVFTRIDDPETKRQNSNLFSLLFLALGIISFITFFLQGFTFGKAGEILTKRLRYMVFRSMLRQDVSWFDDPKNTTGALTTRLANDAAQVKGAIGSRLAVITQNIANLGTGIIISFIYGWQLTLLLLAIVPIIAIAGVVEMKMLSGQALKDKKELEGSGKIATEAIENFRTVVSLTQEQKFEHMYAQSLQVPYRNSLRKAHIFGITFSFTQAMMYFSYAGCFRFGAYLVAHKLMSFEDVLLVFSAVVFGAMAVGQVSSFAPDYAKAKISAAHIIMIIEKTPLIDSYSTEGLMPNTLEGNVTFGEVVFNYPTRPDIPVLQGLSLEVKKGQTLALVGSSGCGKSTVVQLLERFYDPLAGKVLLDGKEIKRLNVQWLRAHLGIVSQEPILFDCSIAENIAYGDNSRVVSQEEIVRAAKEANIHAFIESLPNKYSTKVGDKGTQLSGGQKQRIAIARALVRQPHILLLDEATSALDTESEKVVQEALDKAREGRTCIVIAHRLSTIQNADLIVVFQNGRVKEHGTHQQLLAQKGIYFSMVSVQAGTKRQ
T1 sequence (Q96FX8 whole entry): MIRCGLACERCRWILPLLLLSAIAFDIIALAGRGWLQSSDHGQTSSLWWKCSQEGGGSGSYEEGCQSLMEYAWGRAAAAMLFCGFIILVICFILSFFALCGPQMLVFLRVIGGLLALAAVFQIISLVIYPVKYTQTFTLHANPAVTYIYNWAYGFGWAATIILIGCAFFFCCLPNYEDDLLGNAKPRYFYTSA

Compound: COc1cccc2c1C(=O)c1c(O)c3c(c(O)c1C2=O)C[C@@](O)(C(=O)CO)C[C@@H]3O[C@H]1C[C@H](N)[C@H](O)[C@H](C)O1 [doxorubicin]
- effect on tumor size (CT26 tumors): minimal effect on tumor size

Compound: SipA: Salmonella Typhimurium type III secreted effector protein, SEQ ID NO:01; purified as SipA-HA fusion protein
- expression of P-gp in healthy murine intestinal epithelium (P-gp [1]): could modulate the expression of P-gp in healthy murine intestinal epithelium in vivo
- reduction of P-gp expression (P-gp [2]): 95%
- reduction of P-gp expression (P-gp [3]): 40%
- PERP protein expression (PERP [4]): up-regulates the protein expression of PERP
- modulation of P-gp expression (P-gp [5]; HCT8 monolayers, 80 μg/ml or 160 μg/ml purified SipA-HA, 3 hours): dose dependent ability to modulate P-gp to the same degree as wild-type S. Typhimurium
- interaction with PERP (PERP [6]): bind to PERP at epithelial surfaces

Compound: lipopolysaccharide [reference compound]
- modulation of P-gp by lipopolysaccharide (P-gp [5]; HCT8, purified LPS from S. typhimurium 0.1 to 100 μg/ml, 3 h): not attributed to trace amounts of lipopolysaccharide
